Measured values: patent US20030225272A1, “Novel mmp-2/mmp-9 inhibitors” (priority 2003, published 2003)

Tests used:
[1] = biological target: T1, purified recombinant human MMP-2 (Homo sapiens, UniProt P08253); test: MMP-2 quenched fluorescence screening assay; type: biochemical; settings: 96-well quenched fluorescence assay, same fluorogenic peptide substrate
T1 construct: made in house
T1 sequence (P08253 110-660): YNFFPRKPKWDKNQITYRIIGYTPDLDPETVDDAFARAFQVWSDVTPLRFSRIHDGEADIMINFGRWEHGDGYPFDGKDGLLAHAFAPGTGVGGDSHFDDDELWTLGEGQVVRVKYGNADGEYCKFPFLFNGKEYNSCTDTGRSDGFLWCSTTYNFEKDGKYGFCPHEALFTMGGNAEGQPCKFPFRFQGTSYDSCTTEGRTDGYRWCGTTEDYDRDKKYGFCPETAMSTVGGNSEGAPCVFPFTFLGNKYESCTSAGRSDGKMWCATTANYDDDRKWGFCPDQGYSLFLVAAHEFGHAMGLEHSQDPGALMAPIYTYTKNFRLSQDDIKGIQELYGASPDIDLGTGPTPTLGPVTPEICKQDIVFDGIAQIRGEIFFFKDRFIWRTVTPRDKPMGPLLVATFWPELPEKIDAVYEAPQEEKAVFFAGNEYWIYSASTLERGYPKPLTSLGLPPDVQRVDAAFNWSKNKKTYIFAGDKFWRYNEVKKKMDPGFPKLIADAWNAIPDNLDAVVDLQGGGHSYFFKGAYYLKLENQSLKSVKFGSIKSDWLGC
Protocol: (§1) A high-throughput, 96-well screen was used to measure MMP-9 activity and to detect potential inhibitors of MMP-9. The screen is a quenched fluorescence assay. The components of the assay include purified recombinant human MMP-9 (generated by. SB, 3 nM final concentration) and a fluorogenic peptide substrate (Peptides International, Louisville, Ky., 10 (M final concentration) incubated in the presence or absence of compound. Briefly, enzyme activity is measured after 30 minutes incubation at 37(C. and quantitated using a peptide substrate, (Dnp-Pro-Cha-Gly-Cys(Me)-His-Ala-Lys(NMa)-NH2 or (2,4-Dinitrophenyl-L-Prolyl-L-Cyclohexylalanyl-Glycyl(-Methyl-L-Cysteinyl-L-Histidyl-L-Alanyl-N(-Methylenthranoyl-L-Lysine Amide) containing a fluorophore, Nma, on one end of the peptide and a quencher, Dnp, on the other end. When the peptide is intact, the fluorophore is quenched. When the peptide is cleaved by MMP-9, the quencher is dissociated from the fluorophore and a fluorescent signal is emitted that can easily be detected using a fluorescent plate reader. The universal cleavage site within the peptide that is recognized by MMP-1, -2, -3, -9 and -13 is the Gly-Cys bond.
(§2) A 96-well quenched fluorescence assay was used to measure MMP-9 and MMP-2 activity and to detect potential inhibitors of MMP-9 and MMP-2. […] For these additional screens, an IC50 value was determined. […]

[2] = biological target: T2, purified recombinant human MMP-9 (Homo sapiens, UniProt P14780); test: MMP-9 quenched fluorescence screening assay; type: biochemical; settings: 96-well quenched fluorescence assay, fluorogenic peptide substrate, 30 minutes at 37 C
T2 construct: made in house
T2 sequence (P14780 94-707): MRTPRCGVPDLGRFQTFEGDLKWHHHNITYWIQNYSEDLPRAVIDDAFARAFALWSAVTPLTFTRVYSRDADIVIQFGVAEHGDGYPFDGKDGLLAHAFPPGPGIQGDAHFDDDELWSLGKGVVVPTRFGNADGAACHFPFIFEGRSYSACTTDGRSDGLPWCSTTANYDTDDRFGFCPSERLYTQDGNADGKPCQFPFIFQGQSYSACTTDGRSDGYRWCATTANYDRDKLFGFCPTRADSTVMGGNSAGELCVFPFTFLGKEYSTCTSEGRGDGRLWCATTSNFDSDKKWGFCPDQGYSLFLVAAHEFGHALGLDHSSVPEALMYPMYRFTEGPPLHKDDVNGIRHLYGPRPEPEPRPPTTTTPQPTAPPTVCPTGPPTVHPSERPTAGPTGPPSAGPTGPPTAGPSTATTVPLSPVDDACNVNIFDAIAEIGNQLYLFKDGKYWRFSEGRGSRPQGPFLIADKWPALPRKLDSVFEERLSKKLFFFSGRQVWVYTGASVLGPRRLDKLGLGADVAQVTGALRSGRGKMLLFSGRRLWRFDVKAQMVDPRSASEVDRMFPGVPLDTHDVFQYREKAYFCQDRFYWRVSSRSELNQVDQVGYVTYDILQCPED
Protocol: as §1, §2

## CCCCCCCCC[C@H](CC(=O)O)C(=O)N[C@@H](C(=O)NC)c1ccccc1 [Example 1, N-[2(R)-Nonylsuccinic acid]-L-phenylglycine-N-methylamide]
[1]
  MMP-2 inhibition (screening result in words): identified as a dual MMP-2/MMP-9 inhibitor
[2]
  MMP-9 inhibition (screening result in words): identified as a dual MMP-2/MMP-9 inhibitor
